# Read-outs that look alike come from different tables or passages of the source.
# How the values were obtained:
# PGHS-1 (COX-1) = target: T1, PGHS-1 (COX-1) (Ovis aries, UniProt P05979); assay: COX-1 inhibition by flavonoids and isoflavonoids, O2 uptake (Example 5); type: biochemical; details: for PGHS-1 (COX-1) inhibition: at 1000 μM concentrations; for COX-1 inhibitory activity: FIG. 9, 200 μm concentrations; for COX-1 inhibitory activity among isoflavonoids: COX-1/COX-2 stated together
# T1 construct: purchased Oxford Biomedical Research (Oxford, Mich., USA)
# T1 sequence (P05979 25-600): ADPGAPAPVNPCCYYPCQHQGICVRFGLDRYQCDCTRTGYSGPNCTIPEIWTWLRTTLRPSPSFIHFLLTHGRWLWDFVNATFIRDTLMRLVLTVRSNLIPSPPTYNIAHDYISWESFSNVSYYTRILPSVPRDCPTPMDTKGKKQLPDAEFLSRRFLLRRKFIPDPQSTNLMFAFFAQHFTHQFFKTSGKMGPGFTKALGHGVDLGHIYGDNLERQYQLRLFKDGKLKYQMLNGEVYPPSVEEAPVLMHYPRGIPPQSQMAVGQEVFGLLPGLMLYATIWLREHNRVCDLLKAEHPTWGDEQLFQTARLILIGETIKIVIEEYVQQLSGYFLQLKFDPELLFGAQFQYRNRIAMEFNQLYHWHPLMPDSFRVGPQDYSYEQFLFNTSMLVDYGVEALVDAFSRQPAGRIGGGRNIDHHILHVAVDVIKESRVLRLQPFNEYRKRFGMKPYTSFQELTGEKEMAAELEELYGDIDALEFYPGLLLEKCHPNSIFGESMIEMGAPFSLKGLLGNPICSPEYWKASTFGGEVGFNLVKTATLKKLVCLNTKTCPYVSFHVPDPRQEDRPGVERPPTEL
# Description: (§1) This is an antiinflammatory assay for cyclooxygenase inhibition activity of flavonoids and isoflavonoids. Arachidonic acid and microsomal suspensions of PGHS-1 (COX-1) and COX-2 (PGHS-2) were purchased from Oxford Biomedical Research (Oxford, Mich., USA). Genistein, genistin, naringenin, quercetin, 5,8,4′-trihydroxy-6,7-dimethoxyflavone, kaempferol-3-rutinoside and 3′-methoxy kaempferol 3-rutinoside were purified from BALATON tart cherry by HPLC and were identified by ^1H- and ^13C NMR spectral data. Daidzein and formononetin were purchased from Research Plus, Inc. (Bayonne, N.J., USA). […] Luteolin was purchased from Adams Chemical Co. (Round Lake, Ill., USA).
# For measuring the COX activity, flavonoids or isoflavonoids were dissolved in DMSO to yield 40 mM stock solution and was further diluted to the desired concentration according to the COX-1/COX-2 inhibitory activity of each compound assayed.
# Anti-inflammatory assay: COX activities were measured using microsomal suspensions of PGHS-1 and PGHS-2. Microsomal membranes (5 mg protein/mL in 0.1 M Tris HCl, pH 7.4) were prepared and assayed on the same day. COX-1 and COX-2 assay was performed at 37° C. controlled by a circulation bath (Model-1166, VWR Scientific Products, Chicago, Ill.) by monitoring the rate of O2 uptake using a 5357 Oxygen electrode (INSTECH Laboratory, Plymouth Meeting, Pa.) (Meade, E. A., et al., J. Biol. Chem. 268 6610-6614 (1993)).
# Each assay mixture contained 600 μL of 0.1 M Tris-HCl, pH 8.0, 1 mM phenol, 17 μg hemoglobin and 10 μM arachidonate and were mixed in a microchamber (INSTECH Laboratory, Plymouth Meeting, Pa., USA). […] Reactions were initiated by adding […] of microsomal protein (5 μL). Instantaneous inhibition was determined by measuring the cyclooxygenase activity initiated by adding microsomal suspensions of PGHS-1 or PGHS-2 in the assay mixtures containing 10 μM arachidonate and various concentrations of test compounds. […] The kinetics of the enzyme activity was monitored by Biological Oxygen Monitor (YSI model 5300, Yellow Springs Instrument CO., Inc., Yellow Springs, Ohio) and collected in Quicklog Data Acquisition and Control computer software (Strawberry Tree Inc., Sunnyvale, Calif., USA).
# The COX-1/COX-2 activity of BALATON cherry bioflavonoids was determined by monitoring the O2 uptake. Reactions were initiated by adding PGHS enzyme preparation. One unit of cyclooxygenase represents oxygenation of 1 nmol of arachidonate/min under the standard assay condition by the COX enzyme. This assay was a modification of the assay reported by DeWitt et al. (Dewitt D. L., et al., J. Biol. Chem. 265 5192-5198 (1990)). […] This methodology can also be used for COX-2 assay as well using COX-2 enzyme. […] COX-1 inhibitory activities of flavonoids, kaempferol, quercetin, luteolin, quercetin 3-rhamnoside, 5,8,4′-trihydroxy-6,7-dimethoxyflavone were compared. Kaempferol 3-rutinoside, 3′-methoxy kaempferol 3-rutinoside and naringenin (FIG. 9), and five isoflavonoids, genistein, genistin, daidzein, formononetin and biochanin A (FIG. 8).
# COX-1/COX-2 inhibitory activities of each compound at different concentrations was calculated by comparing the tangent of O2 uptake curves of test compounds with that of blank control. Each assay was repeated 3 times and the IC50 values (50 inhibitory concentrations) were calculated by linear regression analysis.
# PGHS-1 enzyme = target: T2, PGHS-1 enzyme (Ovis aries, UniProt P05979); assay: Cyclooxygenase activity of PGHS-1, initial rate of O2 uptake (Example 4); type: biochemical, ram
# T2 construct: a microsomal fraction of ram seminal vesicles containing PGHS-1 enzyme; tissue Oxford Biomedical Research (Oxford, Mich.); host or cells: ram seminal vesicles (microsomal fraction)
# T2 sequence (P05979 25-600): T1 sequence (P05979 25-600)
# [1] = Tsuda et al. 1994; cited from earlier work
# cyclooxygenase = details: cited from earlier work; for COX inhibition: literature reports
# COX-2 (PGHS-2) = target: T3, COX-2 (PGHS-2) (Homo sapiens, UniProt P35354); assay: COX-2 inhibition by flavonoids and isoflavonoids, O2 uptake (Example 5); type: biochemical; details: COX-1/COX-2 stated together
# T3 construct: purchased Oxford Biomedical Research (Oxford, Mich., USA)
# T3 sequence (P35354 18-604): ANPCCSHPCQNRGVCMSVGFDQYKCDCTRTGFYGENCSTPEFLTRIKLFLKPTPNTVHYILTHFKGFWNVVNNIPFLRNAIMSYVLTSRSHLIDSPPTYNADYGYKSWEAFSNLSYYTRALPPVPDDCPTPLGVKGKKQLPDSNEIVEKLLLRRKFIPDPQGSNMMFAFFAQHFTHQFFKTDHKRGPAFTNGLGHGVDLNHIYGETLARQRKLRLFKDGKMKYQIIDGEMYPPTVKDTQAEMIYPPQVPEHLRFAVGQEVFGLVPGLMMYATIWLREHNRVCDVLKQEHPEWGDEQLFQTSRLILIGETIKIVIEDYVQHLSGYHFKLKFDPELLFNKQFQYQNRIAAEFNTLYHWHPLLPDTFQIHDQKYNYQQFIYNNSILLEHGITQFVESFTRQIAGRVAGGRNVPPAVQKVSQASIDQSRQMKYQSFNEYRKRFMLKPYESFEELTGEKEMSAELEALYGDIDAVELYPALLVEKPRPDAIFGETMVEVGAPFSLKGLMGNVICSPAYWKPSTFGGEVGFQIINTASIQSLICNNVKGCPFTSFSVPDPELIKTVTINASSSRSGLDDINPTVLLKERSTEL
# Description: as §1, with “Ill., USA). […]” for “Ill., USA).”
# Anti-inflammatory assay: COX activities were measured using microsomal suspensions of PGHS-1 and PGHS-2. […]
# Each assay mixture contained 600 μL of 0.1 M Tris-HCl, pH 8.0, 1 mM phenol, 17 μg hemoglobin and 10 μM arachidonate and were mixed in a microchamber (INSTECH Laboratory, Plymouth Meeting, Pa., USA). […] Instantaneous inhibition was determined by measuring the cyclooxygenase activity initiated by adding microsomal suspensions of PGHS-1 or PGHS-2 in the assay mixtures containing 10 μM arachidonate and various concentrations of test compounds. […]
# The COX-1/COX-2 activity of BALATON cherry bioflavonoids was determined by monitoring the O2 uptake. […]
# [2] = Sanchez De Medina et al. 1996; cited from earlier work
# [3] = mean of triplicate, FIGS. 10 and 11, read-out: IC50 for inhibition of PGHS-1 enzyme (COX-1)
compound,measurement,setting,value
COc1cc(-c2oc3cc(O)cc(O)c3c(=O)c2O[C@@H]2O[C@H](CO[C@@H]3O[C@@H](C)[C@H](O)[C@@H](O)[C@H]3O)[C@@H](O)[C@H](O)[C@H]2O)ccc1O [3′-methoxy kaempferol 3-rutinoside],PGHS-1 (COX-1) inhibition,PGHS-1 (COX-1),not active
"COc1c(OC)c(O)c2c(=O)cc(-c3ccc(O)cc3)oc2c1O [5,8,4′-trihydroxy-6,7-dimethoxyflavone]",COX-1 inhibitory activity,PGHS-1 (COX-1),little or no COX-1 inhibition
same,PGHS-1 (COX-1) inhibition,PGHS-1 (COX-1),not active
C[C@H]1O[C@H](OC[C@H]2O[C@@H](Oc3c(-c4ccc(O)cc4)oc4cc(O)cc(O)c4c3=O)[C@H](O)[C@@H](O)[C@@H]2O)[C@@H](O)[C@@H](O)[C@@H]1O [Kaempferol 3-rutinoside],PGHS-1 (COX-1) inhibition,PGHS-1 (COX-1),not active
C[C@@H]1O[C@@H](OC[C@H]2O[C@@H](Oc3cc4c(O)cc(O)cc4[o+]c3-c3ccc(O)c(O)c3)[C@H](O[C@@H]3O[C@H](CO)[C@@H](O)[C@H](O)[C@H]3O)[C@@H](O)[C@@H]2O)[C@H](O)[C@H](O)[C@H]1O [anthocyanin 1],effect on activity of enzyme at higher concentrations,"PGHS-1 enzyme; higher concentrations than 300-nM, enzyme (PGHS-1/PGHS-2) not specified",increased the activity of enzyme
COc1ccc(-c2coc3cc(O)cc(O)c3c2=O)cc1 [biochanin A],IC50,PGHS-1 (COX-1); [3],350 µM
OC[C@H]1O[C@@H](Oc2cc3c(O)cc(O)cc3[o+]c2-c2ccc(O)c(O)c2)[C@H](O)[C@@H](O)[C@@H]1O [cyanidin-3-glucoside],antioxidant activities,[1],strong antioxidant activities
Oc1cc(O)c2cc(O)c(-c3ccc(O)c(O)c3)[o+]c2c1 [cyanidin],IC50,"PGHS-1 enzyme; inhibition of cyclooxygenase activity, FIG. 7",90 µM
O=c1c(-c2ccc(O)cc2)coc2cc(O)ccc12 [daidzein],IC50,PGHS-1 (COX-1),400 µM
O=c1c(O)c(-c2ccccc2)oc2cc(O)cc(O)c12 [galangin],IC50,"cyclooxygenase; Wurm et al. 1982, read-out: IC50 cyclooxygenase inhibition",5.5 µM
O=c1c(-c2ccc(O)cc2)coc2cc(O)cc(O)c12 [genistein],IC50,PGHS-1 (COX-1),80 µM
same,COX-1 inhibitory activity among isoflavonoids,PGHS-1 (COX-1),highest COX-1/COX-2 inhibitory activity
same,COX-2 inhibitory activity among isoflavonoids,COX-2 (PGHS-2),highest COX-1/COX-2 inhibitory activity
O=c1c(-c2ccc(O)cc2)coc2cc(O[C@@H]3O[C@H](CO)[C@@H](O)[C@H](O)[C@H]3O)cc(O)c12 [genistin],COX-1 inhibitory activity among isoflavonoids,PGHS-1 (COX-1),dramatically decreased
same,COX-2 inhibitory activity among isoflavonoids,COX-2 (PGHS-2),dramatically decreased
O=c1c(O)c(-c2ccc(O)cc2)oc2cc(O)cc(O)c12 [kaempferol],COX-1 inhibitory activity,PGHS-1 (COX-1),highest COX-1 inhibition
same,IC50,PGHS-1 (COX-1); [3],180 µM
O=c1cc(-c2ccc(O)c(O)c2)oc2cc(O)cc(O)c12 [luteolin],IC50,PGHS-1 (COX-1); [3],300 µM
CC(C)=CCc1c(-c2ccc(O)cc2O)oc2c3c(cc(O)c2c1=O)OC(C)(C)C=C3 [morusin],COX inhibition,cyclooxygenase,active
O=C1C[C@@H](c2ccc(O)cc2)Oc2cc(O)cc(O)c21 [naringenin],COX-1 inhibitory activity,PGHS-1 (COX-1),dramatically decreased
C[C@@H]1O[C@@H](Oc2c(-c3ccc(O)c(O)c3)oc3cc(O)cc(O)c3c2=O)[C@H](O)[C@H](O)[C@H]1O [quercetin 3-rhamnoside],COX-1 inhibitory activity,PGHS-1 (COX-1),not active
same,in vivo anti-inflammatory activity,[2],reported to have in vivo anti-inflammatory activity
O=c1c(O)c(-c2ccc(O)c(O)c2)oc2cc(O)cc(O)c12 [quercetin],PGHS-1 (COX-1) inhibition,PGHS-1 (COX-1),not active
same,IC50,PGHS-1 (COX-1); [3],350 µM
"O=c1cc(-c2ccccc2)oc2ccccc12 [unsubstituted flavone, flavone]",COX inhibition,cyclooxygenase,good COX inhibitor
